Common to all, as to assay type: cell-based
One assay has as its system MCF7. Briefly: Intracellular GSH, GSH-Glo assay, MCF7 cells. To be noted: Homo sapiens, 48 h, normalized to untreated control; for activity at 250 µM: 250 μM compound, read-out: Intracellular GSH level MCF7 250 μM; for activity at 500 µM: 500 μM compound, read-out: Intracellular GSH level MCF7 500 μM. The protocol: (§1) The cancer cell lines A172, A375, U87 and MCF7 were purchased from American Type Culture Collection (ATCC; Manassas, Va., USA). Cells were cultured in Dulbecco's Modified Eagle's Medium (DMEM) supplemented with 10% fetal bovine serum, 2% v/v L-glutamine, 3.2% v/v non-essential amino acids, antibiotics 2% v/v (penicillin-streptomycin), and 0.02% v/v Plasmocin at 37° C. and 5% CO2.
(§2) xCT expression of cancer cell lines was evaluated by western blotting from protein samples of cell lysates as described in Sleire et al., Oncogene 34: 5951-5959, 2015. Protein concentrations were determined by BCA assay (Thermo Fisher Scientific, USA) followed by SDS PAGE and immunoblotting using rabbit anti-xCT (Thermo Fisher Scientific) and rabbit anti-GAPDH (Abcam, Cambridge, UK) as a loading control. The compounds were dissolved in dimethylsulfoxide (DMSO) (Sigma Aldrich, Germany) and stock concentrations of 100 mM were stored at −20° C. in aliquots. Final concentrations were made in growth medium before adding to the cell monolayers.
(§3) The compounds were evaluated based on the measurement of intracellular Glutathione (GSH) which was performed by the GSH-Glo assay (Promega, Madison, WI, USA, cat #V6912) according to the manufacturer's recommended procedures. 5000 cells per well were seeded in a flat bottomed 96-well plate. After attachment to the well surface, cells were exposed to 250 μM and 500 μM of each compound for 48 h. After that, GSH-Glo reagent was added followed by short incubation and addition of luciferin detection reagent. Bioluminescence was measured using a luminometer (Victor 3 1420 multi-label counter, Perkins Elmer, Waltham, MA, USA). IC50 doses for the compounds SAS, DC10 and DC14 were determined in A172 glioma cells, using the GraphPad Prism v6 software (GraphPad Software, Inc. CA, USA). All measurements were normalized to the untreated control and were performed three times.

The subject of a further assay is U87. Briefly: Intracellular GSH, GSH-Glo assay, U87 cells. To be noted: Homo sapiens, U-87 MG, 48 h, normalized to untreated control; for activity at 250 µM: 250 μM compound, read-out: Intracellular GSH level U87 250 μM; for activity at 500 µM: 500 μM compound, read-out: Intracellular GSH level U87 500 μM. How it is done:
as §1, §2, §3

A further assay deals with A375. Description: Intracellular GSH, GSH-Glo assay, A375 cells. Particulars: Homo sapiens, 48 h, normalized to untreated control; for activity at 250 µM: A-375, 250 μM compound, read-out: Intracellular GSH level A375 250 μM; for activity at 500 µM: A-375, 500 μM compound, read-out: Intracellular GSH level A375 500 μM. The protocol:
as §1, §2, §3

The subject of another assay is A172 glioma cells. Briefly: Intracellular GSH, GSH-Glo assay, A172 cells. To be noted: Homo sapiens, 48 h, normalized to untreated control; for activity at 250 µM: A 172, 250 μM compound, read-out: Intracellular GSH level A172 250 μM; for activity at 500 µM: A 172, 500 μM compound, read-out: Intracellular GSH level A172 500 μM. How it is done: as §1, §2, §3

SMILES strings stand for the structures.

For the molecule `O=C(O)c1cc(/C=C/c2ccccc2)ccc1O` [DC02, (E)-2-hydroxy-5-styrylbenzoic acid], the activity at 250 µM came out at 47.4% in the assay with MCF7, 82.2% in the assay on U87, 50.4% in the assay on A375 and 90.9% in the assay with A172 glioma cells. The activity at 500 µM was found to be 15.9% in the assay with MCF7, 66.9% in the assay on U87, 32% in the assay with A375 and 41% in the assay with A172 glioma cells.

On to `CC1(C)c2ccccc2-c2ccc(/C=C/c3ccc(O)c(C(=O)O)c3)cc21` [DC21, (E)-5-(2-(9,9-dimethyl-9H-fluoren-2-yl)vinyl)-2-hydroxybenzoic acid], for which the activity at 250 µM with MCF7 came out at 5.7%; in the assay on U87 it was 5%; in the assay with A375 it was 4.2%; in the assay with A172 glioma cells it was 4.9%. The activity at 500 µM with MCF7 is 4.2%; with U87, 3.8%; in the assay with A375, 3.3%; in the assay on A172 glioma cells, 2.8%.

Regarding `O=C(O)c1cc(-c2ccc(-c3ccccc3)cc2)ccc1O` [DC17, 4-hydroxy-[1,1′:4′,1″-terphenyl]-3-carboxylic acid], the activity at 250 µM turned out to be 51.7% in the assay with MCF7, 66.2% with U87, 56.6% with A375 and 98.4% with A172 glioma cells. In addition, the activity at 500 µM in the assay with MCF7 amounted to 17%; with U87, 20.2%; in the assay on A375, 4.6%; in the assay with A172 glioma cells, 28.7%.

Take `COc1ccc(/C=C/c2ccccc2)cc1C(=O)O` [DC01, (E)-2-methoxy-5-styrylbenzoic acid]: the activity at 250 µM in the assay on MCF7 was determined as 93.8%; in the assay on U87 it was 76.6%; with A375, 60.5%; in the assay with A172 glioma cells, 84.6%. The activity at 500 µM in the assay on MCF7 amounted to 66.5%; in the assay with U87, 79.6%; with A375, 43.1%; with A172 glioma cells, 76.2%.

For `O=C(O)c1cc(/C=C/c2ccccc2-c2ccccc2)ccc1O` [DC19, (E)-5-(2-([1,1′-biphenyl]-2-yl)vinyl)-2-hydroxybenzoic acid], the activity at 250 µM with MCF7 was 51%; in the assay with U87, 64.6%; in the assay on A375, 47.8%; in the assay on A172 glioma cells it was 58.7%. Moreover, the activity at 500 µM in the assay on MCF7 was 4.3%; in the assay on U87, 5%; with A375, 3.7%; in the assay on A172 glioma cells, 3.3%.

Take `CC(=O)Nc1ccc(/C=C/c2ccccc2)cc1C(=O)O` [DC16, (E)-2-acetamido-5-styrylbenzoic acid]: the activity at 250 µM in the assay with MCF7 was 92.4%; in the assay on U87, 73.5%; in the assay on A375, 34.5%; in the assay on A172 glioma cells it was 67.3%. Moreover, the activity at 500 µM in the assay on MCF7 came out at 83.7%; in the assay with U87 it was 63.2%; in the assay on A375, 26.4%; in the assay on A172 glioma cells it was 51.7%.

In the case of `O=C(O)c1cc(/C=C/c2ccc(F)cc2)ccc1O` [DC07, (E)-5-(4-fluorostyryl)-2-hydroxybenzoic acid], the activity at 250 µM in the assay with MCF7 was 22.1%; with U87 it was 50.4%; in the assay on A375 it was 23.8%; in the assay with A172 glioma cells it was 81.6%. The activity at 500 µM in the assay on MCF7 is 6.9%; in the assay on U87 it was 11.7%; with A375, 7.8%; with A172 glioma cells, 16.8%.

Turning to `O=C(O)c1cc(-c2ccc3ccccc3c2)ccc1O` [DC11, 2-hydroxy-5-(naphthalen-2-yl)benzoic acid], the activity at 250 µM in the assay with MCF7 was found to be 23.7%; in the assay on U87, 62.6%; in the assay with A375 it was 36.1%; with A172 glioma cells, 28.4%. Besides, the activity at 500 µM was found to be 8.8% in the assay with MCF7, 22.7% with U87, 11.8% in the assay on A375 and 10.2% in the assay on A172 glioma cells.

For the molecule `O=C(O)c1cc(/C=C/c2ccc(S(=O)(=O)Nc3ccccc3)cc2)ccc1O` [DC14, (E)-2-hydroxy-5-(4-(N-phenylsulfamoyl)styryl)benzoic acid], the activity at 250 µM with MCF7 was 25.9%; in the assay on U87, 18%; with A375 it was 4.5%; in the assay with A172 glioma cells, 23.1%. The activity at 500 µM in the assay on MCF7 came to 1.8%; with U87 it was 1.9%; with A375, 2%; in the assay on A172 glioma cells it was 2.4%.

As to `CS(=O)(=O)c1ccc(/C=C/c2ccc(O)c(C(=O)O)c2)cc1` [DC13, (E)-2-hydroxy-5-(4-(methylsulfonyl)styryl)benzoic acid], the activity at 250 µM in the assay on MCF7 turned out to be 88.3%; with U87 it was 105%; in the assay with A375 it was 74.3%; in the assay with A172 glioma cells it was 94.1%. The activity at 500 µM with MCF7 turned out to be 76.6%; with U87, 103%; in the assay with A375 it was 59.7%; in the assay on A172 glioma cells it was 81.6%.

As to `Oc1ccc(/C=C/c2ccccc2)cc1-c1nnn[nH]1` [DC15, (E)-4-styryl-2-(1H-tetrazol-5-yl)phenol], the activity at 250 µM in the assay on MCF7 is 75.8%; in the assay on U87, 104%; in the assay on A375, 53.3%; in the assay on A172 glioma cells, 55.1%. Moreover, the activity at 500 µM in the assay with MCF7 was 32.6%; in the assay on U87, 50.4%; in the assay on A375 it was 46.4%; with A172 glioma cells, 9.7%.

Take `Cc1cc(O)c(C(=O)O)c(C)c1-c1ccc2ccccc2c1` [DC20, 6-hydroxy-2,4-dimethyl-3-(naphthalen-2-yl)benzoic acid]: the activity at 250 µM in the assay on MCF7 is 40.5%; with U87 it was 61.1%; with A375 it was 63.1%; in the assay with A172 glioma cells it was 82.1%. Further, the activity at 500 µM in the assay on MCF7 was found to be 9.7%; in the assay on U87 it was 6.1%; in the assay with A375 it was 4.6%; in the assay on A172 glioma cells, 11.9%.

On to `Nc1ccc(/C=C/c2ccccc2)cc1C(=O)O` [DC12, (E)-2-amino-5-styrylbenzoic acid], for which the activity at 250 µM came to 116% in the assay with MCF7, 104% in the assay with U87, 116% in the assay on A375 and 107% with A172 glioma cells. Besides, the activity at 500 µM in the assay with MCF7 came out at 96.5%; in the assay on U87, 117%; with A375, 95.6%; with A172 glioma cells, 101%.

As to `COc1ccc(-c2ccc3ccccc3c2)cc1C(=O)O` [DC05, 2-methoxy-5-(naphthalen-2-yl)benzoic acid], the activity at 250 µM was found to be 82.4% in the assay on MCF7, 42.9% in the assay on U87, 47.6% in the assay on A375 and 75.6% with A172 glioma cells. Further, the activity at 500 µM was determined as 39% with MCF7, 39.5% in the assay with U87, 37.9% in the assay with A375 and 57.7% in the assay on A172 glioma cells.

On to `COc1ccc(C#Cc2ccccc2)cc1C(=O)O` [DC04, 2-methoxy-5-(phenylethynyl)benzoic acid], for which the activity at 250 µM was 91.4% in the assay on MCF7, 80.6% with U87, 63.4% in the assay with A375 and 86.9% with A172 glioma cells. The activity at 500 µM in the assay with MCF7 turned out to be 68%; with U87 it was 88.6%; with A375, 42.4%; with A172 glioma cells, 77.6%.

For the molecule `O=C(O)c1cc(/C=C/c2cccc(-c3ccccc3)c2)ccc1O` [DC18, (E)-5-(2-([1,1′-biphenyl]-3-yl)vinyl)-2-hydroxybenzoic acid], the activity at 250 µM with MCF7 turned out to be 54.6%; with U87, 66.5%; in the assay on A375, 53.7%; in the assay with A172 glioma cells it was 74%. In addition, the activity at 500 µM in the assay on MCF7 was 4.8%; with U87, 4.6%; in the assay with A375, 3.4%; in the assay on A172 glioma cells it was 3.7%.

For the origin of these results see patent publication US12629382B2, “Therapy” (Vestlandets Innovasjonsselskap AS, priority 2019, dated 2026).
